From patent US20100267561A1, “HERBICIDAL PYRIDAZINONE DERIVATIVES” (priority 2007, published 2010)

What was measured:
Format in all cases: in vivo
corn (Zea mays) = test: Test A pre-/postemergence plant response
Outline: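 Soil: loam blended with sand. Formulation: non-phytotoxic solvent mixture plus surfactant, applied as preemergence directed soil spray and as postemergence spray. Scoring: visual, 0 no effect to 100 complete control, roughly 10 days post-treatment in greenhouse.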

[1] = tested on: windgrass (Apera spica-venti); test: Test C pre-/postemergence plant response
Outline: (§1)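 Pre/post spray; solvent blend non-phytotoxic, with surfactant; post stage 1–4 leaves (2–18 cm); controlled environment 15–25 d; visual score 0–100 relative to controls, 100 = complete control.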

[2] = tested on: canarygrass (Phalaris minor); test: Test C pre-/postemergence plant response
Outline: as §1

[3] = tested on: winter wheat (Triticum aestivum); test: Test C pre-/postemergence plant response
Outline: as §1

[4] = tested on: blackgrass (Alopecurus myosuroides); test: Test C pre-/postemergence plant response
Outline: as §1

canola (Brassica rapa) = test: Test C pre-/postemergence plant response
Outline: as §1

[5] = tested on: green foxtail (Setaria viridis); test: Test C pre-/postemergence plant response
Outline: as §1

[6] = tested on: spring barley (Hordeum vulgare); test: Test C pre-/postemergence plant response
Outline: as §1

[7] = tested on: spring wheat (Triticum aestivum); test: Test C pre-/postemergence plant response
Outline: as §1

[8] = tested on: winter barley (Hordeum vulgare); test: Test C pre-/postemergence plant response
Outline: as §1

[9] = tested on: downy bromegrass (Bromus tectorum); test: Test C pre-/postemergence plant response
Outline: as §1

[10] = tested on: Italian ryegrass (Lolium multiflorum); test: Test C pre-/postemergence plant response
Outline: as §1

[11] = tested on: annual bluegrass (Poa annua); test: Test C pre-/postemergence plant response
Outline: as §1

wild oat (Avena fatua) = test: Test C pre-/postemergence plant response
Outline: as §1

[12] = tested on: pigweed (Amaranthus retroflexus); test: Test C pre-/postemergence plant response
Outline: as §1

[13] = tested on: wild mustard (Sinapis arvensis); test: Test C pre-/postemergence plant response
Outline: as §1

[14] = Postemergence, 8 g ai/ha, scale 0 to 100, 0 no effect, 100 complete control
[15] = Postemergence, 16 g ai/ha, scale 0 to 100, 0 no effect, 100 complete control
[16] = Postemergence, 31 g ai/ha, scale 0 to 100, 0 no effect, 100 complete control
[17] = Postemergence, 62 g ai/ha, scale 0 to 100, 0 no effect, 100 complete control
[18] = Preemergence, 8 g ai/ha, scale 0 to 100 (0 no effect, 100 complete control)
[19] = Preemergence, 16 g ai/ha, scale 0 to 100 (0 no effect, 100 complete control)
[20] = Preemergence, 31 g ai/ha, scale 0 to 100 (0 no effect, 100 complete control)
[21] = Preemergence, 62 g ai/ha, scale 0 to 100, 0 no effect, 100 complete control

Cc1cc(-c2ccc(Cl)cc2)nn1-c1c(OC(=O)CC(C)C)cnn(C)c1=O [Compound 37]
Plant response rating, Corn (corn (Zea mays); Postemergence, 31 g ai/ha, 0 to 100 scale, 0 no effect, 100 complete control): 60 | Plant response rating, Corn (corn (Zea mays); Postemergence, 125 g ai/ha, 0 to 100 scale, 0 no effect, 100 complete control): 100 | Plant response rating, Corn (corn (Zea mays); Preemergence, 31 g ai/ha, 0 to 100 scale, 0 is no effect, 100 is complete control): 30 | Plant response rating, Corn (corn (Zea mays); Preemergence, 125 g ai/ha, 0 to 100 scale (0 no effect, 100 complete control)): 90 | Plant response rating, Windgrass [1, 14]: 0 | Plant response rating, Windgrass [1, 15]: 0 | Plant response rating, Windgrass [1, 16]: 15 | Plant response rating, Windgrass [1, 17]: 30 | Plant response rating, Windgrass [1, 18]: 0 | Plant response rating, Windgrass [1, 19]: 20 | Plant response rating, Windgrass [1, 20]: 60 | Plant response rating, Windgrass [1, 21]: 80 | Plant response rating, Canarygrass [2, 14]: 0 | Plant response rating, Canarygrass [2, 15]: 35 | Plant response rating, Canarygrass [2, 16]: 75 | Plant response rating, Canarygrass [2, 17]: 100 | Plant response rating, Canarygrass [2, 18]: 15 | Plant response rating, Canarygrass [2, 19]: 60 | Plant response rating, Canarygrass [2, 20]: 80 | Plant response rating, Canarygrass [2, 21]: 95 | Plant response rating, Wheat, Winter [3, 14]: 0 | Plant response rating, Wheat, Winter [3, 15]: 30 | Plant response rating, Wheat, Winter [3, 16]: 60 | Plant response rating, Wheat, Winter [3, 17]: 90 | Plant response rating, Wheat, Winter [3, 18]: 0 | Plant response rating, Wheat, Winter [3, 19]: 15 | Plant response rating, Wheat, Winter [3, 20]: 25 | Plant response rating, Wheat, Winter [3, 21]: 90 | Plant response rating, Blackgrass [4, 14]: 65 | Plant response rating, Blackgrass [4, 15]: 90 | Plant response rating, Blackgrass [4, 16]: 100 | Plant response rating, Blackgrass [4, 17]: 100 | Plant response rating, Blackgrass [4, 18]: 35 | Plant response rating, Blackgrass [4, 19]: 75 | Plant response rating, Blackgrass [4, 20]: 90 | Plant response rating, Blackgrass [4, 21]: 98 | Plant response rating, Canola (canola (Brassica rapa); [14]): 0 | Plant response rating, Canola (canola (Brassica rapa); [15]): 0 | Plant response rating, Canola (canola (Brassica rapa); [16]): 0 | Plant response rating, Canola (canola (Brassica rapa); [17]): 0 | Plant response rating, Canola (canola (Brassica rapa); [18]): 0 | Plant response rating, Canola (canola (Brassica rapa); [20]): 0 | Plant response rating, Canola (canola (Brassica rapa); [21]): 0 | Plant response rating, Foxtail, Green [5, 14]: 90 | Plant response rating, Foxtail, Green [5, 15]: 100 | Plant response rating, Foxtail, Green [5, 16]: 100 | Plant response rating, Foxtail, Green [5, 17]: 100 | Plant response rating, Foxtail, Green [5, 18]: 75 | Plant response rating, Foxtail, Green [5, 19]: 90 | Plant response rating, Foxtail, Green [5, 20]: 100 | Plant response rating, Foxtail, Green [5, 21]: 100 | Plant response rating, Barley, Spring [6, 14]: 0 | Plant response rating, Barley, Spring [6, 15]: 20 | Plant response rating, Barley, Spring [6, 16]: 50 | Plant response rating, Barley, Spring [6, 17]: 100 | Plant response rating, Barley, Spring [6, 18]: 0 | Plant response rating, Barley, Spring [6, 19]: 0 | Plant response rating, Barley, Spring [6, 20]: 15 | Plant response rating, Barley, Spring [6, 21]: 40 | Plant response rating, Wheat, Spring [7, 14]: 15 | Plant response rating, Wheat, Spring [7, 15]: 50 | Plant response rating, Wheat, Spring [7, 16]: 75 | Plant response rating, Wheat, Spring [7, 17]: 95 | Plant response rating, Wheat, Spring [7, 18]: 0 | Plant response rating, Wheat, Spring [7, 19]: 0 | Plant response rating, Wheat, Spring [7, 20]: 90 | Plant response rating, Wheat, Spring [7, 21]: 98 | Plant response rating, Barley, Winter [8, 14]: 10 | Plant response rating, Barley, Winter [8, 15]: 10 | Plant response rating, Barley, Winter [8, 16]: 25 | Plant response rating, Barley, Winter [8, 17]: 95 | Plant response rating, Barley, Winter [8, 18]: 0 | Plant response rating, Barley, Winter [8, 19]: 0 | Plant response rating, Barley, Winter [8, 20]: 20 | Plant response rating, Barley, Winter [8, 21]: 40 | Plant response rating, Bromegrass, Downy [9, 14]: 20 | Plant response rating, Bromegrass, Downy [9, 15]: 30 | Plant response rating, Bromegrass, Downy [9, 16]: 50 | Plant response rating, Bromegrass, Downy [9, 17]: 70 | Plant response rating, Bromegrass, Downy [9, 18]: 0 | Plant response rating, Bromegrass, Downy [9, 19]: 0 | Plant response rating, Bromegrass, Downy [9, 20]: 60 | Plant response rating, Bromegrass, Downy [9, 21]: 85 | Plant response rating, Ryegrass, Italian [10, 14]: 75 | Plant response rating, Ryegrass, Italian [10, 15]: 95 | Plant response rating, Ryegrass, Italian [10, 16]: 100 | Plant response rating, Ryegrass, Italian [10, 17]: 100 | Plant response rating, Ryegrass, Italian [10, 18]: 0 | Plant response rating, Ryegrass, Italian [10, 19]: 80 | Plant response rating, Ryegrass, Italian [10, 20]: 98 | Plant response rating, Ryegrass, Italian [10, 21]: 100 | Plant response rating, Bluegrass [11, 14]: 0 | Plant response rating, Bluegrass [11, 15]: 20 | Plant response rating, Bluegrass [11, 16]: 20 | Plant response rating, Bluegrass [11, 17]: 20 | Plant response rating, Bluegrass [11, 18]: 0 | Plant response rating, Bluegrass [11, 19]: 35 | Plant response rating, Bluegrass [11, 20]: 60 | Plant response rating, Bluegrass [11, 21]: 70 | Plant response rating, Oat, Wild (wild oat (Avena fatua); [14]): 25 | Plant response rating, Oat, Wild (wild oat (Avena fatua); [15]): 80 | Plant response rating, Oat, Wild (wild oat (Avena fatua); [16]): 90 | Plant response rating, Oat, Wild (wild oat (Avena fatua); [17]): 95 | Plant response rating, Oat, Wild (wild oat (Avena fatua); [18]): 20 | Plant response rating, Oat, Wild (wild oat (Avena fatua); [19]): 20 | Plant response rating, Oat, Wild (wild oat (Avena fatua); [20]): 70 | Plant response rating, Oat, Wild (wild oat (Avena fatua); [21]): 80 | Plant response rating, Pigweed [12, 14]: 0 | Plant response rating, Pigweed [12, 15]: 0 | Plant response rating, Pigweed [12, 16]: 0 | Plant response rating, Pigweed [12, 17]: 0 | Plant response rating, Pigweed [12, 18]: 0 | Plant response rating, Pigweed [12, 19]: 0 | Plant response rating, Pigweed [12, 20]: 0 | Plant response rating, Pigweed [12, 21]: 0 | Plant response rating, Mustard, Wild [13, 14]: 0 | Plant response rating, Mustard, Wild [13, 15]: 0 | Plant response rating, Mustard, Wild [13, 16]: 0 | Plant response rating, Mustard, Wild [13, 17]: 0 | Plant response rating, Mustard, Wild [13, 18]: 0 | Plant response rating, Mustard, Wild [13, 19]: 0 | Plant response rating, Mustard, Wild [13, 20]: 0 | Plant response rating, Mustard, Wild [13, 21]: 0
